T1: CtSen1Hel-1878 (Chaetomium thermophilum, UniProt G0S163 1087-1878)
T1 sequence: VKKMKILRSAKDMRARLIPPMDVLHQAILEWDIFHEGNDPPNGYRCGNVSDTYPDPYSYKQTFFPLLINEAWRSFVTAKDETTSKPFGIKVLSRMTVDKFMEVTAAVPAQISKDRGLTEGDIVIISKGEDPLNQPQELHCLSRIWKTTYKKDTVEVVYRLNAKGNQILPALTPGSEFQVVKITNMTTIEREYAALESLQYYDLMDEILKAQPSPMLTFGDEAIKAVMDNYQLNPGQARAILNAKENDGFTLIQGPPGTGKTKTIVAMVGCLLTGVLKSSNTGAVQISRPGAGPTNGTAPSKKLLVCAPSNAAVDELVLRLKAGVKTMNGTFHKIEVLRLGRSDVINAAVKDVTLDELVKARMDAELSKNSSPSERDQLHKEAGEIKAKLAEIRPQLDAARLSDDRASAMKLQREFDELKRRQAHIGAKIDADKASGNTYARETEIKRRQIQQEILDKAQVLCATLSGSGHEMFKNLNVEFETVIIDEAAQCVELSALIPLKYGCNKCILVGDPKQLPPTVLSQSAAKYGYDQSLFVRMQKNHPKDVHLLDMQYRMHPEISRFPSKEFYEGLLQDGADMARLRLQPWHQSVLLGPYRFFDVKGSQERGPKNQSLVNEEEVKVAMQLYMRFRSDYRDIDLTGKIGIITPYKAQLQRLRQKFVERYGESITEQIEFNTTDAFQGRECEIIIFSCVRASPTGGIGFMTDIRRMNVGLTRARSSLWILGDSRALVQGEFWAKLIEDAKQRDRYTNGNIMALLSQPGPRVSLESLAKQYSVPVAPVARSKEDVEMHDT


How the values were obtained:
CtSen1^FL = CtSen1^FL (Thermochaetoides thermophila, UniProt G0S163); assay: malachite green phosphate release ATPase assay; type: biochemical; settings: 1 mM ATP, 2 mM MgCl2, pH 7.5, 37 °C, RNA-DNA Sub6 5 μM, 5 nM enzyme
CtSen1Hel-1878 = target: T1, CtSen1Hel-1878; assay: X-ray crystallography

Chain of CtSen1^FL (G0S163 1-1993): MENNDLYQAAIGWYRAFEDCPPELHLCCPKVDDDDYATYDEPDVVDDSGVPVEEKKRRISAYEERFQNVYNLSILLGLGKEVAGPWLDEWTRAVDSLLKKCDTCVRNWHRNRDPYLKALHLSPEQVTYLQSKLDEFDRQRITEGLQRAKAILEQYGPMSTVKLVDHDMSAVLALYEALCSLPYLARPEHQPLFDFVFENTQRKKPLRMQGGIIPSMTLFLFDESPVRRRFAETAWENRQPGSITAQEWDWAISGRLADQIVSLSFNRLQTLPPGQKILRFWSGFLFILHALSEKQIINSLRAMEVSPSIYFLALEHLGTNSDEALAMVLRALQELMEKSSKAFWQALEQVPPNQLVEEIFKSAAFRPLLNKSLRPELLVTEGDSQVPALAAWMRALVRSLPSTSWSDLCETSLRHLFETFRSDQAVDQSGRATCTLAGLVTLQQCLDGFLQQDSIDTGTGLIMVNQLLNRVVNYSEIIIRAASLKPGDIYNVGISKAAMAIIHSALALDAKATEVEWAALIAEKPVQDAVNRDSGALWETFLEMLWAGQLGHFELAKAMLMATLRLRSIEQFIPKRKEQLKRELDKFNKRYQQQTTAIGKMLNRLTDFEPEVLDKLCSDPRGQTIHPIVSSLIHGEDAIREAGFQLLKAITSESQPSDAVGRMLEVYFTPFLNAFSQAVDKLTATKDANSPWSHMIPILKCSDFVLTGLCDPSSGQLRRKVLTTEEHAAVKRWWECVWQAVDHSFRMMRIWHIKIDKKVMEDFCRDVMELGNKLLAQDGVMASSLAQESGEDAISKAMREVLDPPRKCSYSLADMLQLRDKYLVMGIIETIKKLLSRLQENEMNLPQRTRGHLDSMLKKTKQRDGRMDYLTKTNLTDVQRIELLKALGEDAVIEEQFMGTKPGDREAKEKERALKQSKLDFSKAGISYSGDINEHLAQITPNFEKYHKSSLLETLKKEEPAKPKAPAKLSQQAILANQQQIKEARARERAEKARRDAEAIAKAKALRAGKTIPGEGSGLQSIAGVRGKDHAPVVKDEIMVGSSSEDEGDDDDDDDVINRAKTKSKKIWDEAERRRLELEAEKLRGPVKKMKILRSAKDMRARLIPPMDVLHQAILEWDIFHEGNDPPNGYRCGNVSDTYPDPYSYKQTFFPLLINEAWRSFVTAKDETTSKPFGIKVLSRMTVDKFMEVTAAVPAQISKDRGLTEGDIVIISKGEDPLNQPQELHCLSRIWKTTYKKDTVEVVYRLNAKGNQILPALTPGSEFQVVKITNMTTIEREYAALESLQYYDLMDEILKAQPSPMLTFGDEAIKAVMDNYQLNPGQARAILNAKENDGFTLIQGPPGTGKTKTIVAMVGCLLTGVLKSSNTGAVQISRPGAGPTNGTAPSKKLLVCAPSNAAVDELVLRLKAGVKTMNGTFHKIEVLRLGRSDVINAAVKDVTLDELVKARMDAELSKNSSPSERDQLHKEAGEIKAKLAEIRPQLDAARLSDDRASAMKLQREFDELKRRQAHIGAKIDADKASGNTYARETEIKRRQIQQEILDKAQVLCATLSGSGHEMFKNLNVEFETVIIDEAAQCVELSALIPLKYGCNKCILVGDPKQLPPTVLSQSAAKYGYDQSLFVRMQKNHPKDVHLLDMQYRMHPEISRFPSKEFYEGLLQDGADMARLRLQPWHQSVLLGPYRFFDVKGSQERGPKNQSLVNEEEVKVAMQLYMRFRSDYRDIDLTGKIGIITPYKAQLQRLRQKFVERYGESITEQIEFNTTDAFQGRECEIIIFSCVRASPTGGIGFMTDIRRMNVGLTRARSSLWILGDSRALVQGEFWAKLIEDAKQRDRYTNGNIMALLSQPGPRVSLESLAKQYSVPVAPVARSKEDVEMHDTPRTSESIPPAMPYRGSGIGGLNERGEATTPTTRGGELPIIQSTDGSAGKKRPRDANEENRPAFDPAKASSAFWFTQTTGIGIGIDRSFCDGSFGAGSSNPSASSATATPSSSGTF

Molecule	malachite green phosphate release ATPase assay (CtSen1^FL)	binding result (CtSen1Hel-1878)
Nc1ncnc2c1ncn2[C@@H]1O[C@H](COP(=O)(O)OP(=O)(O)OP(=O)(O)O)[C@@H](O)[C@H]1O [ATP]	Substrate stimulated ATP hydrolysis of mutant Sen1 proteins was monitored in a phosphate release assay	–
UUUUUUUUUUUUUUU (ssRNA) [poly-U 15 nt]	–	binds
